Measured values taken from US20170128418A1, “COMPOSITIONS AND METHODS FOR IMPROVING LACTATION” (UNIVERSITY OF CINCINNATI, priority 2012, published 2017).

Legend:
HC11 cells = assay: PTHrP gene expression in lactogen-treated HC11 cells (real-time RT-PCR); type: cell-based, mouse; conditions: lactogen-treated rodent HC11 cells
Text: (§1) Cell culture. Primary bovine mammary epithelial cells grown in collagen gels were induced to differentiate by release of the gel from the substratum, and treating with lactogenic hormones as described (15,31). The mouse mammary epithelial cells (HC11) were maintained under growth medium conditions, and lactogen-induced by treatment of 3 day confluent cultures with prolactin, insulin, and cortisol as previously described (17).
(§2) Quantitative real-time RT-PCR amplification. Total RNA was isolated using TRIreagent® (Molecular Research) following manufacturer's procedures. RNA quality was determined through spectrophometric methods on the Nanodrop 2000 (Thermo Scientific). A total of […] was reverse transcribed using the QuantiTect reverse transcription kit (Qiagen). Quantitative real-time RT-PCR was performed using the Applied Biosystems Step One Plus system (Applied Biosystems) using fast SYBR green master mix (Applied Biosystems). The following conditions were utilized: 95′C for 20 sec. followed by 40 cycles of 95′C for 3 sec., 60′C for 30 sec.
To determine whether PTHrP expression in mammary epithelial cells was directly responsive to 5-HT two cell models of lactogenic mammary epithelium were studied: lactogen-treated rodent HC11 cells, and primary bovine mammary epithelial cells embedded in floating collagen gels. […]

[1] = system: primary bovine mammary epithelial cells; assay: PTHrP gene expression in primary bovine mammary epithelial cells in floating collagen gels (real-time RT-PCR); type: cell-based; conditions: primary bovine mammary epithelial cells embedded in floating collagen gels
Text: as §1
Primary bovine mammary epithelial cells (pBMEC) were obtained as a generous gift from Dr. Robert Collier at the University of Arizona and cultured as previously described (15, 31).
as §2, with “30 sec. […]” for “30 sec.”

[2] = system: vascular smooth muscle cells; conditions: previous study; cited from earlier work
PTHrP = assay: 5-HTP injection rescue of TPH1 knockout mice, plasma PTHrP (IRMA); type: in vivo; conditions: TPH1 knockout mice injected with 5-HTP; P<0.0001, R=0.92
Procedure: TPH1^−/−, and corresponding wild type control animals (C57BL/6J genetic background) were bred and maintained in our animal facility. All experiments were performed under protocols approved by the University of Cincinnati Institutional Animal Care and Use Committee. Plasma was collected for PTHrP assay from non-lactating wild type mice and both wild type and TPH1^−/− animals on day 10 of lactation. Mammary gland tissues (#4 glands counted from most rostral) were collected for immunostaining from TPH1^−/− animals and wild type controls on day 10 of lactation, and were fixed in 4% paraformaldehyde, before being paraffin embedded and sectioned.
PTHrP IRMA. Plasma PTHrP levels were measured using a two-site immunoradiometric assay specific for PTHrP 1-86 (Becton Dickinson), following the manufacturer's instructions. The detection limit (blank serum+1 standard deviation) was 0.3 pM under the conditions of this assay.
The conversion of L-tryptophan to 5-hydroxytryptophan (5-HTP) is the rate-limiting step in 5-HT synthesis; therefore we injected 5-HTP to bypass the enzyme deficiency in TPH1 mice, and measured PTHrP plasma levels.

[3] = Circulating 5-HT and PTHrP in rats fed a 5-HTP supplemented diet; type: in vivo; conditions: rats fed 0.2% 5-HTP diet from d13 pregnancy through d9 lactation vs control breeder diet
Procedure: FIG. 1 depicts the circulating levels of (A) serum 5-HT and (B) plasma PTHrP in rats fed 0.2% 5-HTP from d13 pregnancy through d9 lactation compared to rats fed a control breeder diet.
Based on the foregoing results, studies were conducted to establish, in practice, that feeding a diet supplemented with 5-HTP would elevate circulating levels of serotonin (5-HT) and PTHrP. Rats were fed a diet supplemented with 0.2% 5-HTP, and circulating levels of 5-HT (serum) and PTHrP (plasma) in the rats fed 0.2% 5-HTP from d13 pregnancy through d9 lactation were compared to rats fed a control breeder diet.

[4] = Serum and milk calcium in rats fed a 5-HTP supplemented diet; type: in vivo; conditions: rats fed 0.2% 5-HTP diet from d13 pregnancy, vs control diet
Procedure: FIG. 2 depicts the serum and milk calcium concentrations in rats fed 0.2% 5-HTP (n=15) from d13 pregnancy-d9 lactation compared to rats fed a control (n=15) breeder diet at (A) day 1 of lactation and (B) day 9 of lactation.
Based on the foregoing results, studies were conducted to establish, in practice, that feeding a diet supplemented with 5-HTP would elevate circulating calcium levels in lactating animals. Serum and milk calcium concentrations were measured in rats fed a diet supplemented with 0.2% 5-HTP (n=15) from d13 pregnancy-d9 lactation, compared to rats fed a control (n=15) diet. Serum calcium concentrations were elevated by 5-HTP supplementation on dl of lactation, and subsequently, milk calcium levels were elevated by 5-HTP on d9 of lactation (FIG. 2).

mammary cells = assay: PTHrP induction by prolactin in mammary epithelium cell cultures; type: cell-based; conditions: conventional cell cultures of mammary epithelium
Text: PTHrP is undetectable in the circulation except during lactation, in advanced metastatic disease, or in patients with hyperprolactinemia.

NCCc1c[nH]c2ccc(O)cc12 [5-HT, serotonin]
PTHrP gene expression induction (HC11 cells): 8 fold | PTHrP gene expression induction [1]: 20 fold | PTHrP expression [2]: induced

N[C@@H](Cc1c[nH]c2ccc(O)cc12)C(=O)O [5-HTP, 5-Hydroxytryptophan]
plasma PTHrP (PTHrP): time-dependent increase | circulating 5-HT (serum) [3]: elevation | circulating PTHrP (plasma) [3]: elevation | milk calcium levels ([4]; d9 of lactation): elevated | serum calcium concentrations ([4]; dl of lactation): elevated

B1: prolactin (protein, UniProt P01236 29-227, looked up)
Prolactin: LPICPGGAARCQVTLRDLFDRAVVLSHYIHNLSSEMFSEFDKRYTHGRGFITKAINSCHTSSLATPEDKEQAQQMNQKDFLSLIVSILRSWNEPLYHLVTEVRGMQEAPEAILSKAVEIEEQTKRLLEGMELIVSQVHPETKENEIYPVWSGLPSLQMADEESRLSAYYNLLHCLRRDSHKIDNYLKLLKCRIIHNNNC
notes: prolactin hormone
PTHrP induction (mammary cells): did not induce
